Test results from patent US20150352034A1, “Personal Care Products Containing Microalgae or Extracts Thereof” (Solazyme, Inc., priority 2014, published 2015).

Columns and labels:
[1] = test system: MatTek's EpiDerm tissue; test: UVB protection assay, MTT tissue viability; format: cell-based, human; conditions: 300 mJ/cm^2 UVB, then 1 mM, 100 μl topically for 24 hours; in % (unit assumed)
Procedure: MatTek's EpiDerm tissue, a skin model that consists of normal human-derived epidermal keratinocytes cultured to form a multilayered, highly differentiated model of the human epidermis, was used to measure changes in tissue viability. The tissues were exposed to 300 mJ/cm^2 of UVB radiation and subsequently topically treated with the aforementioned test materials over a period of 24 hours. Materials were tested for their abilities to either maintain tissue viability after UVB exposure or aid in the recovery of tissue damaged by UVB radiation. […] The MTT analysis involved a colorimetric analysis of tissue metabolic activity, the increased presence of color indicating the presence of metabolically-active living cells. Reduction of MTT by mitochondria in viable cells results in purple formazin crystals; the intensity of the purple color is directly proportional to metabolically active cells in the tissue. The tissues were stored at 4° C. until used. […] One gram of WAF was mixed with 10 ml of water for one hour at room temperature. The WAF-water mixture was then centrifuged for 5 minutes to pellet any undissolved material and the supernatant was used for topical application. The Sample B, Sample F, and Sample A were applied topically without any further processing. […] Reduced MTT was subsequently extracted from the tissues and colorimetrically analyzed at 540 nm to determine tissue viability.

[2] = test system: thymine dimers in genomic DNA of MatTek's EpiDerm tissue; test: Thymine dimer formation after UVB; format: cell-based, human; conditions: 300 mJ/cm^2 UVB, then 1 mM, 100 μl topically for 24 hours
Procedure: This method was designed to evaluate changes in tissue DNA thymine dimer content after exposure to UVB. The testing system used for this assay was MatTek's EpiDerm tissue, a skin model that consists of normal human-derived epidermal keratinocytes cultured to form a multilayered, highly differentiated model of the human epidermis. For this study, the tissues were exposed to UVB (300 mJ/cm^2) and then treated topically for 24 hours with the test material. Following the treatment the DNA was extracted from the EpiDerm tissues and assayed for thymine dimer content. For the assay, samples of the DNA were immobilized on a solid membrane support and incubated with an antibody that recognizes thymine dimers in double stranded DNA. The primary antibody was then detected using a secondary antibody conjugated to a fluorescent dye. The membrane was then scanned using an excitation laser and emission filter combination appropriate for the fluorescent dye. With this method, the fluorescence intensity of each sample is proportional to the amount of the thymine dimers present in the sample. […] UVB lamp intensity was measured using a UVX radiometer with a probe specific for UVB (detects 260-360 nm, max absorbance at 310 nm, calibrated at 310 nm) to determine exposure times required for the appropriate UVB dose. […] Extracted DNA was quantified via a fluorometric assay. […]

[3] = test system: procollagen synthesis in fibroblasts; test: Type I Collagen Assay (type I C-peptide ELISA, fibroblast culture medium); format: cell-based; conditions: 48 h
Procedure: (§1) The type I C-peptide fragment was measured because procollagen, a precursor to mature collagen, is cleaved in collagen and type I C-peptide fragments in a 1:1 ratio. By measuring the amount of type I C-peptide fragments in the tissue medium, collagen production was measured. Elastin was measured directly from the cell culture medium. Hyaluronic acid was measured in the tissue culture media. All measurements were performed using an ELISA based method.
(§2) Powder materials were prepared by combining 1 gram of the powder material with either 10 ml ultrapure water or 10 ml of DMSO. The mixtures were incubated for one hour at room temperature on a rocking platform to saturate the extraction medium with the test material. The mixture was then centrifuged to separate the saturated extract solution from the undissolved solid materials. The oil based materials were prepared as a stock solution in DMSO and then diluted into the culture media such that the final concentration of DMSO was 1%. A 1% DMSO control was included to account for any effect the solvent might have when evaluating the effect of the oils or DMSO prepared powders. […]
A series of type I C-peptide standards were prepared ranging from 0 ng/ml to 640 ng/ml for the procollagen assay. […] After the incubation 100 μl of stop solution (1 N sulfuric acid) was added to each well and the plate was read using a microplate reader at 450 nm.

[4] = test system: elastin synthesis in fibroblasts; test: Elastin Assay (ELISA, fibroblast culture medium); format: cell-based; conditions: 48 h
Procedure: as §1, §2
A set of alpha-elastin standards was generated ranging from 0 to 100 ng/ml. […] After the final incubation, the plate was read at 460 nm using a plate reader.

[5] = test system: hyaluronic acid synthesis in fibroblasts; test: Hyaluronic Acid Assay (ELISA, fibroblast culture medium); format: cell-based
Procedure: as §1
Powder materials were prepared by combining 1 gram of the powder material with either 10 ml ultrapure water or 10 ml of DMSO. The mixtures were incubated for one hour at room temperature on a rocking platform to saturate the extraction medium with the test material. The mixture was then centrifuged to separate the saturated extract solution from the undissolved solid materials. The oil based materials were prepared as a stock solution in DMSO and then diluted into the culture media such that the final concentration of DMSO was 1%. A 1% DMSO control was included to account for any effect the solvent might have when evaluating the effect of the oils or DMSO prepared powders.
The fibroblast cell culture was prepared by seeding fibroblasts into the individuals wells of a 24-well plate in 0.5 ml of Fibroblast Growth Media (FGM) and incubated overnight at 37±2° C. and at 5±1% CO2. The media was removed via aspiration to eliminate non-adherent cells and replaced with 0.5 ml of fresh FGM. The medium was changed every 48 to 72 hours until the cells growth reached confluency. Once confluent, the cells were treated for 24 hours with DMEM supplemented with 1.5% FBS to wash out any growth factors present in the normal culture media.
The prepared fibroblast cell cultures were then treated with the prepared test materials at the aforementioned concentrations dissolved in FGM with 1.5% FBS. TGF-B at a concentration of 50 ng/ml was used as a positive control for collagen and elastin, and dibutyrl cAMP at a concentration of 0.1 mM was used as a positive control for hyaluronic acid. Untreated cells received DMEM with 1.5% FBS. The cells were incubated for 48 hours and then either frozen or assayed immediately. Materials were tested in triplicate.
A series of hyaluronic acid standards was prepared ranging from 50 ng/ml to 3,200 ng/ml. Next, 100 μl of each standard (in duplicate) and sample was transferred to a well in an incubation plate. After adding 50 μl of detection solution to each well (except the reagent blank wells) the plate was incubated for 1±0.25 hour at 37±2° C. […] After this final incubation 50 μl of stop solution was added to each well and the absorbance of the plate was measured at 405 nm using a plate reader.

Molecule: Cc1c(C)c2c(c(C)c1O)CCC(C)(C(=O)O)O2 (stereo not shown) [Trolox, 6-hydroxy-2,5,7,8-tetramethylchroman-2-carboxylic acid]
- Viability [1]: 98 ± 5.6
- Thymine Dimer Formation [2]: 296.5 ± 12.2 ng/mL

Molecule: CCCC(=O)Nc1ncnc2c1ncn2[C@@H]1O[C@@H]2COP(=O)(O)O[C@H]2[C@H]1OC(=O)CCC [dBcAMP, dibutyrl cAMP]
- Type I C-Peptide ([3]; 0.1 mM): 3438 ± 277 ng/mL
- Elastin ([4]; 0.1 mM): 43 ± 16 ng/mL
- Hyaluronic Acid ([5]; Table Va, 0.1 mM, 48 h): 494 ± 51 ng/mL
- Hyaluronic Acid ([5]; Table Vb, 0.1 mM): 547 ± 31 ng/mL

Molecule: TGF-B
- Type I C-Peptide ([3]; 50 ng/ml): 5282 ± 178 ng/mL
- Elastin ([4]; 50 ng/ml): 178 ± 6 ng/mL
- Hyaluronic Acid ([5]; Table Va, 50 ng/ml, 48 h): 260 ± 34 ng/mL
- Hyaluronic Acid ([5]; Table Vb, 50 ng/ml): 528 ± 96 ng/mL
